From ChEMBL document CHEMBL1201862, “PubChem BioAssay data set” (2004)
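Assay format: 96-well plates, 48-hour exposure. GI50 is the concentration that inhibits growth by half.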 Activity calls are given as the source filed them. No stated cut-off is given here; in the data, active = GI50 up to about 1.1 µM and inactive = higher.

Key:
Experiment in all cases: NCI tumour cell line growth inhibition, 48 h
[1] = tested on: 786-0
[2] = tested on: A498
[3] = tested on: A549
[4] = tested on: ACHN
[5] = tested on: CAKI-1
[6] = tested on: CCRF-CEM
[7] = tested on: COLO 205
[8] = tested on: DU-145
[9] = tested on: EKVX
[10] = tested on: HCC 2998
[11] = tested on: HCT-116
[12] = tested on: HCT-15
[13] = tested on: HL-60
[14] = tested on: HOP-62
[15] = tested on: HOP-92
[16] = tested on: HT-29
[17] = tested on: Hs-578T
[18] = tested on: IGROV-1
[19] = tested on: K562
[20] = tested on: KM12
[21] = tested on: LOX IMVI
[22] = tested on: M14
[23] = tested on: MCF7
[24] = tested on: MDA-MB-231
[25] = tested on: MDA-MB-435
[26] = tested on: MDA-N
[27] = tested on: MOLT-4
[28] = tested on: Malme-3M
[29] = tested on: NCI-H226
[30] = tested on: NCI-H23
[31] = tested on: NCI-H460
[32] = tested on: NCI-H522
[33] = tested on: NCI/ADR-RES
[34] = tested on: OVCAR-3
[35] = tested on: OVCAR-4
[36] = tested on: OVCAR-5
[37] = tested on: OVCAR-8
[38] = tested on: PC-3
[39] = tested on: RPMI-8226
[40] = tested on: RXF 393
[41] = tested on: SF-268
[42] = tested on: SF-295
[43] = tested on: SF-539
[44] = tested on: SK-MEL-28
[45] = tested on: SK-MEL-2
[46] = tested on: SK-MEL-5
[47] = tested on: SK-OV-3
[48] = tested on: SN12C
[49] = tested on: SNB-19
[50] = tested on: SNB-75
[51] = tested on: SR
[52] = tested on: SW-620
[53] = tested on: T47D
[54] = tested on: TK-10
[55] = tested on: U-251
[56] = tested on: UACC-257
[57] = tested on: UACC-62
[58] = tested on: UO-31
[59] = tested on: BT-549

In the case of COc1cc(C(C[N+](=O)[O-])SC(C)=O)ccc1OCc1ccccc1 (stereo unspecified), the GI50 [1] is reported as 1.79 µM (inactive), the GI50 [2] is reported as 7.57 µM (inactive) and the GI50 [3] is reported as 9.33 µM (inactive). The GI50 [4] was 9.55 µM (inactive), the GI50 [5] was 12 µM (inactive) and the GI50 [6] was 1.18 µM (inactive). The GI50 [7] was 5.24 µM (inactive), the GI50 [8] was 13.3 µM (inactive) and the GI50 [9] was 19.8 µM (inactive). The GI50 [10] was 8.45 µM (inactive), the GI50 [11] was 4.13 µM (inactive) and the GI50 [12] was 3.08 µM. The GI50 [13] was 0.261 µM (active), the GI50 [14] was 7.18 µM (inactive) and the GI50 [15] was 18.9 µM (inactive). For the same compound, the GI50 [16] was 2.4 µM (inactive), the GI50 [17] was 3.31 µM (inactive) and the GI50 [18] was 2.88 µM (inactive). The GI50 [19] was 1.38 µM (inactive), the GI50 [20] was 4.85 µM (inactive) and the GI50 [21] was 1.43 µM (inactive). For the same compound, the GI50 [22] was 4.89 µM (inactive), the GI50 [23] was 2.38 µM (inactive) and the GI50 [24] was 4.93 µM (inactive). The GI50 [25] was 3.08 µM (inactive), the GI50 [26] was 2.88 µM (inactive) and the GI50 [27] was 2.25 µM (inactive). For the same compound, the GI50 [28] was 12.3 µM (inactive), the GI50 [29] was 7.91 µM (inactive) and the GI50 [30] was 4.79 µM (inactive). The GI50 [31] was 8.95 µM (inactive), the GI50 [32] was 0.345 µM (active) and the GI50 [33] was 12.2 µM (inactive). The GI50 [34] was 3.01 µM (inactive), the GI50 [35] was 14.4 µM (inactive) and the GI50 [36] was 14.8 µM (inactive). For the same compound, the GI50 [37] was 5.9 µM (inactive), the GI50 [38] was 4.47 µM (inactive) and the GI50 [39] was 1.39 µM (inactive). The GI50 [40] was 1.69 µM (inactive), the GI50 [41] was 6.14 µM (inactive) and the GI50 [42] was 2.9 µM (inactive). The GI50 [43] was 2.48 µM (inactive), the GI50 [44] was 2.54 µM (inactive) and the GI50 [45] was 7.59 µM (inactive). The GI50 [46] was 9.04 µM (inactive), the GI50 [47] was 16.1 µM (inactive) and the GI50 [48] was 4.17 µM (inactive). The GI50 [49] was 8.24 µM (inactive), the GI50 [50] was 11.4 µM (inactive) and the GI50 [51] was 1.79 µM (inactive). For the same compound, the GI50 [52] was 3.13 µM (inactive), the GI50 [53] was 20.5 µM (inactive) and the GI50 [54] was 6.35 µM (inactive). For the same compound, the GI50 [55] was 6.9 µM (inactive), the GI50 [56] was 5.02 µM (inactive) and the GI50 [57] was 3.09 µM (inactive). The GI50 [58] was 4.57 µM (inactive).
With COc1cccc(-c2cc(O)c3cc(N)ccc3n2)c1 the GI50 [1] was 4.05 µM (inactive), the GI50 [3] was 5.94 µM (inactive) and the GI50 [4] was 7.13 µM (inactive). For the same compound, the GI50 [59] was 5.81 µM (inactive), the GI50 [6] was 2.25 µM (inactive) and the GI50 [7] was 4.27 µM (inactive). For the same compound, the GI50 [9] was > 100 µM (inactive), the GI50 [10] was 6.55 µM (inactive) and the GI50 [12] was 3.47 µM. The GI50 [14] was 5.92 µM (inactive), the GI50 [15] was 3.44 µM (inactive) and the GI50 [16] was 3.22 µM (inactive). The GI50 [17] was 2.09 µM (inactive), the GI50 [18] was 5.06 µM (inactive) and the GI50 [20] was 3.62 µM (inactive). The GI50 [22] was 4.63 µM (inactive), the GI50 [23] was 3.94 µM (inactive) and the GI50 [24] was 25.2 µM (inactive). For the same compound, the GI50 [25] was 0.834 µM (active), the GI50 [27] was 3.71 µM (inactive) and the GI50 [28] was 2.14 µM (inactive). For the same compound, the GI50 [30] was 9.91 µM (inactive), the GI50 [31] was 3.75 µM (inactive) and the GI50 [32] was 2.39 µM (inactive). The GI50 [33] was 2.54 µM (inactive), the GI50 [36] was > 100 µM (inactive) and the GI50 [37] was 9.16 µM (inactive). For the same compound, the GI50 [38] was 2.09 µM (inactive), the GI50 [43] was 2.35 µM (inactive) and the GI50 [44] was 7.62 µM (inactive). The GI50 [46] was 2.88 µM (inactive), the GI50 [47] was 2.3 µM (inactive) and the GI50 [48] was 7.05 µM (inactive). For the same compound, the GI50 [49] was 5.26 µM (inactive), the GI50 [50] was 2.75 µM (inactive) and the GI50 [52] was 1.94 µM (inactive). For the same compound, the GI50 [54] was 6.79 µM (inactive) and the GI50 [57] was 2.92 µM (inactive).
C[C@H]1C[C@H]2[C@@H]3C(C)(C)O[C@]4(O)C(=O)[C@]5(O)[C@@H](C)CC[C@H]1[C@]25C(=O)[C@]34C was tested, and the GI50 [1] was 75.5 µM (inactive), the GI50 [2] was 35 µM (inactive) and the GI50 [3] was 41.6 µM (inactive). The GI50 [4] was 27.3 µM (inactive), the GI50 [5] was 39.4 µM (inactive) and the GI50 [6] was 36.6 µM (inactive). The GI50 [7] was 16.7 µM (inactive), the GI50 [8] was 48.2 µM (inactive) and the GI50 [11] was 30.7 µM (inactive). The GI50 [12] was 33.9 µM, the GI50 [13] was 29.4 µM (inactive) and the GI50 [14] was 47.1 µM (inactive). The GI50 [15] was 8.61 µM (inactive), the GI50 [16] was 26 µM (inactive) and the GI50 [17] was 37.5 µM (inactive). For the same compound, the GI50 [18] was 64 µM (inactive), the GI50 [19] was 25.5 µM (inactive) and the GI50 [20] was 35.6 µM (inactive). The GI50 [21] was 36.1 µM (inactive), the GI50 [22] was 71 µM (inactive) and the GI50 [23] was 41.3 µM (inactive). The GI50 [24] was > 100 µM (inactive), the GI50 [25] was 32.8 µM (inactive) and the GI50 [26] was 37.7 µM (inactive). The GI50 [27] was 37.1 µM (inactive), the GI50 [29] was 31.3 µM (inactive) and the GI50 [30] was 30.3 µM (inactive). For the same compound, the GI50 [31] was 30.2 µM (inactive), the GI50 [32] was 18 µM (inactive) and the GI50 [33] was 39.3 µM (inactive). The GI50 [34] was 27.4 µM (inactive), the GI50 [36] was 65.2 µM (inactive) and the GI50 [37] was 63.7 µM (inactive). The GI50 [38] was 44.1 µM (inactive), the GI50 [39] was 18.1 µM (inactive) and the GI50 [41] was 45.7 µM (inactive). The GI50 [42] was 30.1 µM (inactive), the GI50 [43] was > 100 µM (inactive) and the GI50 [45] was 31.3 µM (inactive). For the same compound, the GI50 [46] was 28.4 µM (inactive), the GI50 [47] was 82.4 µM (inactive) and the GI50 [48] was 80.2 µM (inactive). For the same compound, the GI50 [49] was > 100 µM (inactive), the GI50 [51] was 40.1 µM (inactive) and the GI50 [52] was 79.6 µM (inactive). For the same compound, the GI50 [53] was 25.2 µM (inactive), the GI50 [55] was 60.3 µM (inactive) and the GI50 [56] was 48.5 µM (inactive). For the same compound, the GI50 [57] was 43.4 µM (inactive) and the GI50 [58] was 51.6 µM (inactive).
